The values below come from patent publication US7879853B2, “4,6-disubstituted pyrimidines and their use as protein kinase inhibitors” (Bayer Schering Pharma AG, priority 2004, dated 2011).

A word on the melting point: it is the temperature, or range, at which the solid turns liquid.

On to `Nc1ccc(CC(=O)Nc2ccc(Nc3cc(-c4cccc5c4oc4ccccc45)ncn3)cc2)cc1.O=C(O)C(F)(F)F`, for which the melting point was 125 to 130 °C.

The compound `Nc1cccc(C(=O)Nc2cccc(Nc3cc(-c4cccc5c4oc4ccccc45)ncn3)c2)c1.O=C(O)C(F)(F)F` gave a melting point of 150 to 153 °C. As to `CN(C)c1ccc(C(=O)Nc2ccc(Nc3cc(-c4cccc5c4oc4ccccc45)ncn3)cc2)cc1` [Compound 2, N-[4-(6-Dibenzofuran-4-yl-pyrimidin-4-ylamino)-phenyl]-4-dimethylamino-benzamide], the melting point was 285 to 300 °C. Next, `CN1CCN(Cc2ccc(C(=O)Nc3ccc(Nc4cc(-c5cccc6c5oc5ccccc56)ncn4)cc3)cc2)CC1` [Compound 3, N-[4-(6-Dibenzofuran-4-yl-pyrimidin-4-ylamino)-phenyl]-4-(4-methyl-piperazin-1-ylmethyl)-benzamide]: 270 to 274 °C.

For `CN(C)c1ccccc1C(=O)Nc1ccc(Nc2cc(-c3cccc4c3oc3ccccc34)ncn2)cc1` [Compound 5, N-[4-(6-Dibenzofuran-4-yl-pyrimidin-4-ylamino)-phenyl]-2-dimethylamino-benzamide], the melting point fell in the range of 246 to 249 °C. `O=C(Nc1ccc(Nc2cc(-c3cccc4c3oc3ccccc34)ncn2)cc1)c1ccccc1` [Compound 7, N-[4-(6-Dibenzofuran-4-yl-pyrimidin-4-ylamino)-phenyl]-benzamide] had a melting point of 323 to 325 °C. Take `CC(C)(C)c1ccc(C(=O)Nc2ccc(Nc3cc(-c4cccc5c4oc4ccccc45)ncn3)cc2)cc1` [Compound 8, 4-tert-Butyl-N-[4-(6-dibenzofuran-4-yl-pyrimidin-4-ylamino)-phenyl]-benzamide]: the melting point lay within 261 to 263 °C. Under `CN(C)c1cccc(C(=O)Nc2ccc(Nc3cc(-c4cccc5c4oc4ccccc45)ncn3)cc2)c1` [Compound 10, N-[4-(6-Dibenzofuran-4-yl-pyrimidin-4-ylamino)-phenyl]-3-dimethylamino-benzamide] stands 225 to 232 °C; under `O=C(Nc1ccc(Nc2cc(-c3cccc4c3oc3ccccc34)ncn2)cc1)c1ccc(CN2CCOCC2)cc1` [Compound 13, N-[4-(6-Dibenzofuran-4-yl-pyrimidin-4-ylamino)-phenyl]-4-morpholin-4-ylmethyl-benzamide], over 250 °C. Consider `CN1CCN(c2ccc(C(=O)Nc3ccc(Nc4cc(-c5cccc6c5oc5ccccc56)ncn4)cc3)cc2)CC1` [Compound 14, N-[4-(6-Dibenzofuran-4-yl-pyrimidin-4-ylamino)-phenyl]-4-(4-methyl-piperazin-1-yl)-benzamide], for which the melting point was in the range of 304 to 319 °C. Compound `O=C(Nc1ccc(Nc2cc(-c3cccc4c3oc3ccccc34)ncn2)cc1)c1ccc(N2CCOCC2)nc1` [Compound 15, N-[4-(6-Dibenzofuran-4-yl-pyrimidin-4-ylamino)-phenyl]-6-morpholin-4-yl-nicotinamide] displayed a melting point of 310 to 312 °C. For `COCCC(CCOC)c1cccc(C(=O)Nc2ccc(Nc3cc(-c4cccc5c4oc4ccccc45)ncn3)cc2)c1` [Compound 16, N-[4-(6-Dibenzofuran-4-yl-pyrimidin-4-ylamino)-phenyl]-3-[3-methoxy-1-(2-methoxyethyl)-propyl]-benzamide], the melting point was 186 to 188 °C. Take `CC(C)(C)OC(=O)NCc1ccc(C(=O)Nc2ccc(Nc3cc(-c4cccc5c4oc4ccccc45)ncn3)cc2)cc1` [Compound 17, tert-Butyl N-{4-[4-(6-dibenzofuran-4-yl-pyrimidin-4-ylamino)-phenylcarbamoyl]-benzyl}-carbamate]: the melting point lay within 311 to 321 °C.

Take `CC(C)(C)OC(=O)Nc1ccccc1C(=O)Nc1ccc(Nc2cc(-c3cccc4c3oc3ccccc34)ncn2)cc1` [Compound 18, tert-Butyl N-{2-[4-(6-Dibenzofuran-4-yl-pyrimidin-4-ylamino)-phenylcarbamoyl]-phenyl}-carbamate]: the melting point was over 340 °C.
